According to patent publication US9080220B2 (priority 2006, dated 2015):
Where two headings read alike, the source gives them in different places.

Test system: inflammatory hyperalgesia induced by carrageenan on a rat's paw
Design: species or system rat (male Sprague Dawley)
Conditions: in vivo, ip

For CN1CC[C@]23c4c5ccc(O)c4O[C@H]2[C@@H](O)C=C[C@H]3[C@H]1C5 [morphine], the “protection against hyperalgesia induced by carrageenan” value (0.3 mg/kg) was “does not induce statistically significant protection”, the “increase of pain threshold following a mechanical stimulus applied to the rats' paws” value (1 mg/kg) was 65% and the “increase of pain threshold following a mechanical stimulus applied to the rats' paws” value (3 mg/kg) was 97%.
